Measured values taken from PMC9226124, “Macrocycle-stabilization of its interaction with 14-3-3 increases plasma membrane localization and activity of CFTR” (Nature Communications, 2022).
Where “and” joins values, the source holds several entries; their conditions need not be identical. Equal values may be shown once.

Experiments:
[1] = target: T1, 14-3-3β/CFTRpS753pS768 complex (Homo sapiens, UniProt P13569+P31946); assay: Dose-response fluorescence polarization (FP) assay, compound titration; assay type: binding; settings: for FP signal: With 14-3-3
T1 construct: His6 (cleaved yes); made in house; peptide synthetic
T1 sequence (P31946 whole entry): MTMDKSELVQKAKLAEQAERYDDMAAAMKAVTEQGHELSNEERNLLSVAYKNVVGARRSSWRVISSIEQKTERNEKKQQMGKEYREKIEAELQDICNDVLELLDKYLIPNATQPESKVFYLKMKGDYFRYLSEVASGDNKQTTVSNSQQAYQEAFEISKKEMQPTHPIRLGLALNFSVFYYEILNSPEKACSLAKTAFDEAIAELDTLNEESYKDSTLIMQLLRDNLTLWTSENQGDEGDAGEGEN
T1 sequence (P13569 747-774 limits assumed): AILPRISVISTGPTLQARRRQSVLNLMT
Outline: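 Compounds were titrated in two-fold dilutions against 10 μM 14-3-3β and FITC-CFTR pS753pS768 peptide (100 nM or 10 nM). Buffer: 10 mM HEPES pH 7.4, 150 mM NaCl, 0.1% Tween20, 1 mg/mL BSA. Polarization was read at ex 485/em 535 nm, and EC50 was derived from a four-parameter variable-slope fit.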

[2] = target: T1, 14-3-3β/CFTRpS753pS768 complex; assay: FP assay, 14-3-3β titration at constant compound concentration (apparent KD); assay type: binding; settings: replicates

N=C(N)NCCCC1NC(=O)C(CCC(N)=O)NC(=O)C(CCCNC(=N)N)NC(=O)C2CCCN2Cc2ccccc2Sc2ccccc2CNC1=O (stereo not drawn) [CY007502]
EC50 ([1]; 14-3-3β 10 μM, labeled CFTRpS753pS768 100 nM, read-out: EC50): 275 µM
FP signal ([1]; compound 453 pM): 1
FP signal ([1]; compound 906 pM): 2
FP signal ([1]; compound 1.81198e-9 M): 2
FP signal ([1]; compound 3.62396e-9 M): 3
FP signal ([1]; compound 7.24792e-9 M): 3
FP signal ([1]; compound 1.44958e-8 M): 1
FP signal ([1]; compound 2.89917e-8 M): 3
FP signal ([1]; compound 5.79834e-8 M): 4
FP signal ([1]; compound 1.15967e-7 M): 3
FP signal ([1]; compound 2.31934e-7 M): 4
FP signal ([1]; compound 4.63867e-7 M): 6
FP signal ([1]; compound 9.27734e-7 M): 3
FP signal ([1]; compound 1.85547e-6 M): 3
FP signal ([1]; compound 3.71094e-6 M): 4
FP signal ([1]; compound 7.42187e-6 M): 6
FP signal ([1]; compound 1.48437e-5 M): 6
FP signal ([1]; compound 2.96875e-5 M): 6
FP signal ([1]; compound 5.9375e-5 M): 26
FP signal ([1]; compound 0.00011875 M): 67
FP signal ([1]; compound 0.0002375 M): 127
FP signal ([1]; compound 0.000475 M): 188
FP signal ([1]; compound 0.00095 M): 241
FP signal, 14-3-3β titration ([2]; 14-3-3β 7.62939e-9 M, FC-A + CY compound): 7 and 2 and -1
FP signal, 14-3-3β titration ([2]; 14-3-3β 7.62939e-9 M, compound 100 μM): 6 and 5
FP signal, 14-3-3β titration ([2]; 14-3-3β 1.52588e-8 M, FC-A + CY compound): 5 (2×) and 6
FP signal, 14-3-3β titration ([2]; 14-3-3β 1.52588e-8 M, compound 100 μM): 0 and 3 and 4
FP signal, 14-3-3β titration ([2]; 14-3-3β 3.05176e-8 M, FC-A + CY compound): 12 and 13 and 8
FP signal, 14-3-3β titration ([2]; 14-3-3β 3.05176e-8 M, compound 100 μM): 4 and 5 and 3
FP signal, 14-3-3β titration ([2]; 14-3-3β 6.10352e-8 M, FC-A + CY compound): 19 and 17 (2×)
FP signal, 14-3-3β titration ([2]; 14-3-3β 6.10352e-8 M, compound 100 μM): 3 (2×) and 5
FP signal, 14-3-3β titration ([2]; 14-3-3β 1.2207e-7 M, FC-A + CY compound): 30 and 33 and 27
FP signal, 14-3-3β titration ([2]; 14-3-3β 1.2207e-7 M, compound 100 μM): 6 and 5 and 8
FP signal, 14-3-3β titration ([2]; 14-3-3β 2.44141e-7 M, FC-A + CY compound): 51 and 57 and 45
FP signal, 14-3-3β titration ([2]; 14-3-3β 2.44141e-7 M, compound 100 μM): 8 (2×) and 7
FP signal, 14-3-3β titration ([2]; 14-3-3β 4.88281e-7 M, FC-A + CY compound): 76 and 79 and 69
FP signal, 14-3-3β titration ([2]; 14-3-3β 4.88281e-7 M, compound 100 μM): 10 and 8 and 12
FP signal, 14-3-3β titration ([2]; 14-3-3β 9.76563e-7 M, FC-A + CY compound): 99 and 95 and 89
FP signal, 14-3-3β titration ([2]; 14-3-3β 9.76563e-7 M, compound 100 μM): 16 and 15 and 18
FP signal, 14-3-3β titration ([2]; 14-3-3β 1.95313e-6 M, FC-A + CY compound): 108 (2×) and 110
FP signal, 14-3-3β titration ([2]; 14-3-3β 1.95313e-6 M, compound 100 μM): 24 (2×) and 28
FP signal, 14-3-3β titration ([2]; 14-3-3β 3.90625e-6 M, FC-A + CY compound): 119 (2×) and 117
FP signal, 14-3-3β titration ([2]; 14-3-3β 3.90625e-6 M, compound 100 μM): 31 and 32 and 33
FP signal, 14-3-3β titration ([2]; 14-3-3β 7.8125e-6 M, FC-A + CY compound): 126 and 127 and 121
FP signal, 14-3-3β titration ([2]; 14-3-3β 7.8125e-6 M, compound 100 μM): 35 and 40 and 41
FP signal, 14-3-3β titration ([2]; 14-3-3β 1.5625e-5 M, FC-A + CY compound): 132 and 128 and 129
FP signal, 14-3-3β titration ([2]; 14-3-3β 1.5625e-5 M, compound 100 μM): 49 and 50 and 52
FP signal, 14-3-3β titration ([2]; 14-3-3β 3.125e-5 M, FC-A + CY compound): 138 and 136 and 135
FP signal, 14-3-3β titration ([2]; 14-3-3β 3.125e-5 M, compound 100 μM): 64 and 62 and 65
FP signal, 14-3-3β titration ([2]; 14-3-3β 6.25e-5 M, FC-A + CY compound): 143 and 145
FP signal, 14-3-3β titration ([2]; 14-3-3β 6.25e-5 M, compound 100 μM): 87 and 83 and 85
FP signal, 14-3-3β titration ([2]; 14-3-3β 0.000125 M, FC-A + CY compound): 156 and 151 and 152
FP signal, 14-3-3β titration ([2]; 14-3-3β 0.000125 M, compound 100 μM): 104 and 106 and 103
FP signal, 14-3-3β titration ([2]; 14-3-3β 0.00025 M, FC-A + CY compound): 165 and 159 and 157
FP signal, 14-3-3β titration ([2]; 14-3-3β 0.00025 M, compound 100 μM): 119 (2×) and 122
FP signal, 14-3-3β titration ([2]; 14-3-3β 0.0005 M, FC-A + CY compound): 177 and 175 and 169
FP signal, 14-3-3β titration ([2]; 14-3-3β 0.0005 M, compound 100 μM): 151 and 144 and 146
